This data set in a line: Pharmacokinetic study, plasma concentrations by LC-MS/MS. Also on record: species or system beagle dogs. To be noted: dog, in vivo. The method, then:
Each overnight-fasted dog in group 1 received an intravenous bolus dose administration (1 mg/kg) of the compound of Formula (I). Following i.v. dose administration, blood samples (˜3 mL) were collected via jugular venipuncture, or other suitable site, into EDTA tubes and placed on wet ice, at predose (0.0), 0.25, 0.5, 1, 2, 4, 8, and 24 hours post dose. Each overnight-fasted dog in groups 2-5 received a single oral dose (200 mg) of compound of Formula (I). Following oral dose administration, blood samples (˜3 mL) were collected via jugular venipuncture, or other suitable site, into EDTA tubes and placed on wet ice, at predose (0.0), 0.25, 0.5, 1, 2, 4, 8, 24, 36, and 48 hours post dose. Plasma was harvested by centrifugation, each plasma sample are split into approximately equal parts before being frozen at −70° C. Food was returned after the 4 hour blood sample is collected. All samples were processed within two hours of collection. All samples are labeled with the study number, test article, dose, time interval, species, and animal identification number.
One set of plasma samples were analyzed for unchanged compound of Formula (I) concentrations using a liquid chromatographic-triple quadrupole mass spectrometric (LC-MS/MS) assay procedure. Any remaining plasma was retained for possible metabolite profiling. […]

As for `Cc1cnc(NCC(F)(F)c2ccccc2)c(=O)n1CC(=O)NCCONC(=N)N` [Compound X], the colonic absorption entry is reported as “very poor colonic absorption”.
